Reference: ChEMBL document CHEMBL1201862, “PubChem BioAssay data set” (2004)
Active and inactive are the calls of the source.

Columns and labels:
[1] = target: T1, Cytochrome P450 1A2 (Homo sapiens, UniProt P05177);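 also: PubChem cytochrome P450 panel assay, CYP1A2 panel member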
T1 sequence (P05177 whole entry): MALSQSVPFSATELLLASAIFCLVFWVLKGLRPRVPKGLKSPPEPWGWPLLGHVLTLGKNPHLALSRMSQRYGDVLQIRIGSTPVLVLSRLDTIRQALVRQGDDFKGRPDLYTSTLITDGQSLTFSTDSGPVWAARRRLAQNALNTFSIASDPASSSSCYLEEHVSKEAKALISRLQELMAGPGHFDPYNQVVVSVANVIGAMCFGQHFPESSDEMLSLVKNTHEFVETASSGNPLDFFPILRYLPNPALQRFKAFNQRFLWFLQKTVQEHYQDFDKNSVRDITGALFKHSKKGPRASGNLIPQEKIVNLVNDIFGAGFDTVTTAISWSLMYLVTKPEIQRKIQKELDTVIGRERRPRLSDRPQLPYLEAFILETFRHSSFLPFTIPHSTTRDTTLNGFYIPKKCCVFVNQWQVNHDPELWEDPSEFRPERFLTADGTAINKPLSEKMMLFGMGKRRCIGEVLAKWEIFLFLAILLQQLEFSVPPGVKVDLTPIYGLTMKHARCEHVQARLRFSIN

[2] = target: Multidrug resistance protein CDR1 (Candida albicans, UniProt P43071); test: inhibition of Nile Red efflux via Candida CDR1 – S. cerevisiae AD1-8u, singleplex, Cherry Pick1 hits, dose response (AID 588606); assay type: functional
[3] = system: BJ; test: growth inhibition of engineered Ras-driven BJ cells – cell-based, alamar blue fluorescence, cherrypicked samples, dose response (AID 2631); assay type: functional; conditions: Homo sapiens;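 also: confirmatory dose-response assay in RAS-dependent BJ fibroblasts engineered with TERT, LT and ST, with cytotoxicity read by fluorescence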
[4] = Luminescence Cell-Based Dose Response HTS to Identify Inhibitors of 5'UTR Stem-Loop Driven Prion Protein mRNA Translation in H4 Neuroglioblastoma Cells. [Related pubchem assays: 1827 (Project Summary), 1813 (Primary HTS)]; assay type: functional
[5] = target: T2, Leucine aminopeptidase (Plasmodium falciparum 3D7, UniProt Q8IL11); test: P. falciparum M17LAP inhibitors, primary screen, biochemical, fluorogenic H-Leu-NHMec substrate, 1536-well (AID 1619); assay type: functional
T2 sequence (Q8IL11 whole entry): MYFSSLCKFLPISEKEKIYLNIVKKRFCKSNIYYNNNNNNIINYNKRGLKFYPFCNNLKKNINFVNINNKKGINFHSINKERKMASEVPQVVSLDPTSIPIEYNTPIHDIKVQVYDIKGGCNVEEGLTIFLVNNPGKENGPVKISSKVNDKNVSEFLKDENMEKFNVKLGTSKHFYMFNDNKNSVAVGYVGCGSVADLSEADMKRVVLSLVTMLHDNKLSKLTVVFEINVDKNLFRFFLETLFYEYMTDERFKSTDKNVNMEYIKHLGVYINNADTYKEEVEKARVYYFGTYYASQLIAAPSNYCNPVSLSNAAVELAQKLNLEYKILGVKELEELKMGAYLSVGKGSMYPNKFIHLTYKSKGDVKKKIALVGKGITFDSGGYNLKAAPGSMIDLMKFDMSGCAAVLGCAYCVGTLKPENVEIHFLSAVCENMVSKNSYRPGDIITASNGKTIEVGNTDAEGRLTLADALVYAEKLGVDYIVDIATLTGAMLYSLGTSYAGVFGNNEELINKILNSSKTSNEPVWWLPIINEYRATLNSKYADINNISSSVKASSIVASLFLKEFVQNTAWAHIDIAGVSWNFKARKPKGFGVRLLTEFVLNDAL

[6] = target: Intestinal-type alkaline phosphatase (Mus musculus, UniProt P24822); test: PubChem AID 488874; assay type: functional
Chain of Intestinal-type alkaline phosphatase (P24822 whole entry): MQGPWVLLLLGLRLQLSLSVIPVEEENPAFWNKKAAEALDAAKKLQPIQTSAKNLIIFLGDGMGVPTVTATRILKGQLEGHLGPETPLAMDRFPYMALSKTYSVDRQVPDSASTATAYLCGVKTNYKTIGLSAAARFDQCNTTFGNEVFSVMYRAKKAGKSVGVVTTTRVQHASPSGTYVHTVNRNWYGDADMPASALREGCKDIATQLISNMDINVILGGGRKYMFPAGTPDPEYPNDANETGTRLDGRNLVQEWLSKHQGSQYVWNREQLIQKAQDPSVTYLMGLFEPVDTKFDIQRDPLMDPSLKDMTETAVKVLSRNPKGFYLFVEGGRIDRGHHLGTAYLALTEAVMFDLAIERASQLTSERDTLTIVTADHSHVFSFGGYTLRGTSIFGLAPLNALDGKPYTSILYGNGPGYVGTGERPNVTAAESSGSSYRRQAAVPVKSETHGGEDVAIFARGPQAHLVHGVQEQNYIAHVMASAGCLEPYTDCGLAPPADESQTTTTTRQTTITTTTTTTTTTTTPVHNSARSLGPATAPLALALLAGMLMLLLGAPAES

[7] = target: Serine/threonine-protein kinase D3 (Homo sapiens, UniProt O94806); assay type: functional;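 also: determined within a kinase panel screen, with PRKCN as the panel member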
[8] = target: Ephrin type-A receptor 2 (Homo sapiens, UniProt P29317); assay type: functional;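 also: EPHA2 tested as one member of a kinome-wide kinase panel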
[9] = target: Calcium/calmodulin-dependent protein kinase type 1 (Homo sapiens, UniProt Q14012); assay type: functional
[10] = target: Casein kinase I isoform gamma-1 (Homo sapiens, UniProt Q9HCP0); assay type: functional;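 also: measured as the CSNK1G1 member of a kinome profiling panel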
[11] = target: Dual specificity tyrosine-phosphorylation-regulated kinase 1B (Homo sapiens, UniProt Q9Y463); test: Navigating the Kinome. Panel member name: DYRK1B; assay type: functional
Chain of Dual specificity tyrosine-phosphorylation-regulated kinase 1B (Q9Y463 whole entry): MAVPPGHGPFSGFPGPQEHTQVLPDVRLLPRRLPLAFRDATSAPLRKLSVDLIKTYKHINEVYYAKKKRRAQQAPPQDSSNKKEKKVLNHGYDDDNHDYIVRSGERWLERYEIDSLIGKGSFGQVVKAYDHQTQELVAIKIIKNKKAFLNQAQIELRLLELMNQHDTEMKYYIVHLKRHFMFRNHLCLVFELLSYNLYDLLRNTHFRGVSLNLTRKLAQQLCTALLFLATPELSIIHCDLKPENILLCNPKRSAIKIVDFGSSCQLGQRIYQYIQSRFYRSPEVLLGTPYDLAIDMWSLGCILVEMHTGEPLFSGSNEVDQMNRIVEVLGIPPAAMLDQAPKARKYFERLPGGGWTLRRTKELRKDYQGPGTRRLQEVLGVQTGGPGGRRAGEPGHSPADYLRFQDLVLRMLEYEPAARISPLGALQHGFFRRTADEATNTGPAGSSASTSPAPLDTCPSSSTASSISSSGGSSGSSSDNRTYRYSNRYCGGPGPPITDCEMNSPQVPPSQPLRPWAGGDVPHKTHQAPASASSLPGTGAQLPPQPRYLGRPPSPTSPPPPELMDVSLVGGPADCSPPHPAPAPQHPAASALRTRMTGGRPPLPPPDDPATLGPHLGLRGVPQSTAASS

[12] = target: Tyrosine-protein kinase JAK3 (Homo sapiens, UniProt P52333); assay type: functional
[13] = target: Dual specificity mitogen-activated protein kinase kinase 1 (Homo sapiens, UniProt Q02750); test: Navigating the Kinome. Panel member name: MAP2K1; assay type: functional
Chain of Dual specificity mitogen-activated protein kinase kinase 1 (Q02750 whole entry, canonical isoform): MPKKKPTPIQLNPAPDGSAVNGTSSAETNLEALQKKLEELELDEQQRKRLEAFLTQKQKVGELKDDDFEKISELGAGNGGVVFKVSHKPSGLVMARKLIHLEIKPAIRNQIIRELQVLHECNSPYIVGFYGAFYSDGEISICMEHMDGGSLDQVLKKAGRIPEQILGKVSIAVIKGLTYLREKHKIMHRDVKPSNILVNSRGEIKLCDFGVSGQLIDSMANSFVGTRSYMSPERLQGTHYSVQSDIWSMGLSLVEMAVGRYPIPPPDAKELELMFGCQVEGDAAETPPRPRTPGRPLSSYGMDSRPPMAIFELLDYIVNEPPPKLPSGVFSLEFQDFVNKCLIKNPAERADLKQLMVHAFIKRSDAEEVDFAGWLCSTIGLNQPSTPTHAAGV

[14] = target: Casein kinase I isoform alpha (Homo sapiens, UniProt P48729); assay type: functional
Chain of Casein kinase I isoform alpha (P48729 whole entry, canonical isoform): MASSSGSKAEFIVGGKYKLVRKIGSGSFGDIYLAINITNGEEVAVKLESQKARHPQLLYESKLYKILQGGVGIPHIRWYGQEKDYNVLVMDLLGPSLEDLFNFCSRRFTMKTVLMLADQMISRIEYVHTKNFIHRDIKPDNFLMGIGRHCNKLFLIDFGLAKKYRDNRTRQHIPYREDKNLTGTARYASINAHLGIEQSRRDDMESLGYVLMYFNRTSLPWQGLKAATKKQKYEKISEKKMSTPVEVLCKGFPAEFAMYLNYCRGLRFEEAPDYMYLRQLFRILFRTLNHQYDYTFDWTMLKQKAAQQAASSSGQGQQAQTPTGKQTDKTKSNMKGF

[15] = target: Hepatocyte growth factor receptor (Homo sapiens, UniProt P08581); assay type: functional;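 also: kinase panel profiling across the kinome, with MET as the panel member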
Chain of Hepatocyte growth factor receptor (P08581 whole entry): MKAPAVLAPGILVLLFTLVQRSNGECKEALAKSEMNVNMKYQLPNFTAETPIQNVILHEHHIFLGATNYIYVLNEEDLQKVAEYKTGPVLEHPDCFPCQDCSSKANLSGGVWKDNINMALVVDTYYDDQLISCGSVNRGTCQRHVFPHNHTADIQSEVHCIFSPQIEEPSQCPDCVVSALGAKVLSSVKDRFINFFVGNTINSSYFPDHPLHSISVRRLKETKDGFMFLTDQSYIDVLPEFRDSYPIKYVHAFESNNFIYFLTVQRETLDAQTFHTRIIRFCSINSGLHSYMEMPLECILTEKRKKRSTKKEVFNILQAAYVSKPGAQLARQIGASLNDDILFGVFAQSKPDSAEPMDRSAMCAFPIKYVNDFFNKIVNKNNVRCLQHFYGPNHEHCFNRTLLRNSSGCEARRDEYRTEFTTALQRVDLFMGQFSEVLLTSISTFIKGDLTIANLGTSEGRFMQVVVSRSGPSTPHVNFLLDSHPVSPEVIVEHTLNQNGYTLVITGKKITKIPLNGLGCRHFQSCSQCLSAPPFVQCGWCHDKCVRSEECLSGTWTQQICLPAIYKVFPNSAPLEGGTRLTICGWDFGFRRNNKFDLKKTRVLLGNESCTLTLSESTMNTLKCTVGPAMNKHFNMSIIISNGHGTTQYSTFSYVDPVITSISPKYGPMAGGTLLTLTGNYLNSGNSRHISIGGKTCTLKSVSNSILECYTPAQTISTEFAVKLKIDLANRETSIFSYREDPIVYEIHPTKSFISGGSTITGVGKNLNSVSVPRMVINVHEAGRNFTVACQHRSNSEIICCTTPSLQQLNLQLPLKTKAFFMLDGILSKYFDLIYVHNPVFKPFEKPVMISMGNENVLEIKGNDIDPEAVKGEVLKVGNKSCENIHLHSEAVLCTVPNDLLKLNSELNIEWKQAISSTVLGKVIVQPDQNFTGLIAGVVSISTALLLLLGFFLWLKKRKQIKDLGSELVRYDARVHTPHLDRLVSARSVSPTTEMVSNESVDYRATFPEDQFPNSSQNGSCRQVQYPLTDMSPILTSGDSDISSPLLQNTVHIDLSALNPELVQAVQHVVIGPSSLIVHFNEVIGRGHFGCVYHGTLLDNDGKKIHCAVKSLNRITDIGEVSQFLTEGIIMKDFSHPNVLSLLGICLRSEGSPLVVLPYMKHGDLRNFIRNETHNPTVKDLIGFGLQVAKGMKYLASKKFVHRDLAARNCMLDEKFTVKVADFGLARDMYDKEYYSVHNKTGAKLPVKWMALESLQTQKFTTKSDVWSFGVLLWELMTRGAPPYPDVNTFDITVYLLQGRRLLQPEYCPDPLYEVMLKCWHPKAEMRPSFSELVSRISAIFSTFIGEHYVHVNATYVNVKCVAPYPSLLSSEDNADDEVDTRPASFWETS

[16] = target: MAP kinase-activated protein kinase 2 (Homo sapiens, UniProt P49137); assay type: functional;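 also: measured as one member of a kinome-wide kinase panel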
[17] = target: BDNF/NT-3 growth factors receptor (Homo sapiens, UniProt Q16620); assay type: functional;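 also: NTRK2 measured as one member of a broad kinome-wide kinase profiling panel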
[18] = target: RAC-alpha serine/threonine-protein kinase (Homo sapiens, UniProt P31749); assay type: functional;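 also: AKT1 affinity measured as one member of a kinome-wide kinase profiling panel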
Chain of RAC-alpha serine/threonine-protein kinase (P31749 whole entry): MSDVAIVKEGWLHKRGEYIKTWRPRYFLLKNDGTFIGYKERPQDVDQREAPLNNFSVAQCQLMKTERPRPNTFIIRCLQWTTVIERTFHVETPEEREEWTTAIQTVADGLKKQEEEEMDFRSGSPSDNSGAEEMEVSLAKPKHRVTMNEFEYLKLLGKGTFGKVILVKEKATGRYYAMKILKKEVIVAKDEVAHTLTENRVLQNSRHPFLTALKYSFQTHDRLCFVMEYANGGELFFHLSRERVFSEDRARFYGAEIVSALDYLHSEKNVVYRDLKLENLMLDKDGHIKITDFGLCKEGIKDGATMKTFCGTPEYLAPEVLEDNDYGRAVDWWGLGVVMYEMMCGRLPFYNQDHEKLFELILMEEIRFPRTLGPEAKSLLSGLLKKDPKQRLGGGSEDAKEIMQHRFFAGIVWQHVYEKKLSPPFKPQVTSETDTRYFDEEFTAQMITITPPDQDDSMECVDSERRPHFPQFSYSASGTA

[19] = target: Serine/threonine-protein kinase BRSK1 (Homo sapiens, UniProt Q8TDC3); assay type: functional;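 also: measured within a kinome-wide kinase panel, with the target listed as KIAA1811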
[20] = target: Cyclin-dependent kinase 8 (Homo sapiens, UniProt P49336); test: Navigating the Kinome. Panel member name: CDK8; assay type: functional
[21] = target: Mitogen-activated protein kinase 12 (Homo sapiens, UniProt P53778); assay type: functional;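 also: measured as one member of a kinome-wide kinase profiling panel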
Chain of Mitogen-activated protein kinase 12 (P53778 whole entry): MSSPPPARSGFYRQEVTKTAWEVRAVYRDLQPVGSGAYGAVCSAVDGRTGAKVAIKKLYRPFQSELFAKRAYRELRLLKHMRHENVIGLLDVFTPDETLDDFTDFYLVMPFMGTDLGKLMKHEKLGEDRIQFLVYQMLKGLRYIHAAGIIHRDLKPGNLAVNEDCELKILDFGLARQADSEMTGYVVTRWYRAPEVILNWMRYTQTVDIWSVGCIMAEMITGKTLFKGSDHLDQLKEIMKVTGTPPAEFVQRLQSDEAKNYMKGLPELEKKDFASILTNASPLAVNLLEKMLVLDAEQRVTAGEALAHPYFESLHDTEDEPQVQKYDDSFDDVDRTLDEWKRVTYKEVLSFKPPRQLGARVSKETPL

[22] = target: Serine/threonine-protein kinase D2 (Homo sapiens, UniProt Q9BZL6); assay type: functional;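 also: measured against PRKD2 as one member of a kinome-wide kinase profiling panel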
[23] = target: Glycogen synthase kinase-3 alpha (Homo sapiens, UniProt P49840); assay type: functional;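 also: GSK3A result taken from a broad kinome-wide kinase panel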
Chain of Glycogen synthase kinase-3 alpha (P49840 whole entry): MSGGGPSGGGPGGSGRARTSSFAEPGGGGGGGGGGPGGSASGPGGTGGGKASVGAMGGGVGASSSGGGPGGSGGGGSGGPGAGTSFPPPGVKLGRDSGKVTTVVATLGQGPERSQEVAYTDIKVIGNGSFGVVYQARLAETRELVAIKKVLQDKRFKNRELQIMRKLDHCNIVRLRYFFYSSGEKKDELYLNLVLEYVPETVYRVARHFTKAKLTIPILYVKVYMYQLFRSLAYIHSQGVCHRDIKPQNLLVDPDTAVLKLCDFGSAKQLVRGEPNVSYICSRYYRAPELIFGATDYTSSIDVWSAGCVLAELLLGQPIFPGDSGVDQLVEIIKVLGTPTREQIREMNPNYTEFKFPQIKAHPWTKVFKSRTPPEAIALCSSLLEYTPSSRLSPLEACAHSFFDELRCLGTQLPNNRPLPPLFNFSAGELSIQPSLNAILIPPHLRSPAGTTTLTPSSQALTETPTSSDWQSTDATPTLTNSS

[24] = target: Aurora kinase B (Homo sapiens, UniProt Q96GD4); assay type: functional
Chain of Aurora kinase B (Q96GD4 whole entry): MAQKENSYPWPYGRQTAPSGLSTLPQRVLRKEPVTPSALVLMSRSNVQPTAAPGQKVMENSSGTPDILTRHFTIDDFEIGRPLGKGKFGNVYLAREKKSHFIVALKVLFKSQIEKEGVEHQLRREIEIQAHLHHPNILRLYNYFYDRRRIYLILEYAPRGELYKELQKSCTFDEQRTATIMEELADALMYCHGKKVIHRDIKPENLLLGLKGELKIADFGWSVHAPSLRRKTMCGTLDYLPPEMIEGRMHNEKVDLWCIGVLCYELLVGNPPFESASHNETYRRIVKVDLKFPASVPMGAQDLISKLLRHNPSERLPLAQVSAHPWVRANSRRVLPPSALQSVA

[25] = target: Cyclin-dependent kinase 1 (Homo sapiens, UniProt P06493); assay type: functional;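 also: Kinome-wide panel profiling, with the target listed as panel member CDC2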
[26] = target: Protein kinase C zeta type (Homo sapiens, UniProt Q05513); assay type: functional;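 also: measured as one member of a broad kinase profiling panel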
[27] = target: Testis-specific serine/threonine-protein kinase 1 (Homo sapiens, UniProt Q9BXA7); assay type: functional
[28] = target: Interleukin-1 receptor-associated kinase 1 (Homo sapiens, UniProt P51617); assay type: functional;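 also: IRAK1 tested as one member of a kinome panel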
[29] = target: Serine/threonine-protein kinase PLK4 (Homo sapiens, UniProt O00444); assay type: functional;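 also: PLK4 measured as one member of a kinome-wide kinase profiling panel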
[30] = system: HeLa; test: viability loss in HeLa cells – cell-based, 24 h, cherry-picked samples, cytotoxicity control, dose response (AID 504726); assay type: functional; conditions: Homo sapiens;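 also: potency for cytotoxicity as loss of luminescence signal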

Question: For `CN(C)S(=O)(=O)Oc1cccc(C(=O)Nc2ccc(Cl)c(Cl)c2)c1`, which AC50 [1] is on record?
Answer: 2 µM (inconclusive)

Question: With `Cc1ccc2[nH]c(/C(C#N)=C/c3ccc(O)c(O)c3)nc2c1` as the molecule, how does the EC50 [2] read?
Answer: 13.4 µM (active)

Question: Which EC50 [3] does the source give for `COC(=O)C1CN(C#N)N(c2ccc(Cl)cc2)C12c1ccccc1-c1ccccc12` (stereo not given) here?
Answer: 0.563 µM (inconclusive)

Question: What about the EC50 [4] of the same molecule?
Answer: 10.1 µM (active)

Question: Which IC50 [5] does the source give for `O=C(NN1C(=O)CSC1=S)C(=O)NN1C(=O)CSC1=S` here?
Answer: 20.5 µM (active)

Question: And the IC50 [6]?
Answer: 3.84 µM (active)

Question: For `Nc1noc2cccc(-c3cccc(O)c3)c12`, which Ki [7] is on record?
Answer: > 10 µM (inactive)

Question: What about the Ki [8] of the same molecule?
Answer: > 3.16 µM (inactive)

Question: And the Ki [9]?
Answer: > 5.01 µM (inactive)

Question: And the Ki [10]?
Answer: > 6.31 µM (inactive)

Question: What about the Ki [11] of the same molecule?
Answer: 3.16 µM (active)

Question: And the Ki [12]?
Answer: > 1.58 µM (inactive)

Question: And the Ki [13]?
Answer: 1.58 µM (active)

Question: And the Ki [14]?
Answer: > 5.01 µM (inactive)

Question: And the Ki [15]?
Answer: > 12.6 µM (inactive)

Question: What about the Ki [16] of the same molecule?
Answer: > 7.94 µM (inactive)

Question: What about the Ki [17] of the same molecule?
Answer: > 20 µM (inactive)

Question: And the Ki [18]?
Answer: > 7.94 µM (inactive)

Question: And the Ki [19]?
Answer: 7.94 µM (active)

Question: What about the Ki [20] of the same molecule?
Answer: 0.501 µM (active)

Question: And the Ki [21]?
Answer: > 6.31 µM (inactive)

Question: And the Ki [22]?
Answer: 7.94 µM (active)

Question: What about the Ki [23] of the same molecule?
Answer: > 50.1 µM (inactive)

Question: And the Ki [24]?
Answer: 3.98 µM (active)

Question: What about the Ki [25] of the same molecule?
Answer: > 7.94 µM (inactive)

Question: What about the Ki [26] of the same molecule?
Answer: > 7.94 µM (inactive)

Question: What about the Ki [27] of the same molecule?
Answer: > 1.58 µM (inactive)

Question: And the Ki [28]?
Answer: > 7.94 µM (inactive)

Question: And the Ki [29]?
Answer: 2 µM (active)

Question: With `O=C1NC(=S)S/C1=C\C=C\c1ccc([N+](=O)[O-])o1` as the molecule, how does the AC50 [30] read?
Answer: 12.5 µM (active)
